From patent US11306096B2, “4,6 dihydropyrrolo [3,4-C] pyrazole-5 (1H)-carbonitrile derivates for treating cancer” (MISSION THERAPEUTICS LIMITED, priority 2016, dated 2022)

molecular target: USP7 (Homo sapiens (Human), UniProt Q93009); assay: USP7 Biochemical IC50 Assay; settings: FLAG-USP7; enzyme and compound incubated 30 min at room temp; TAMRA labelled peptide-ubiquitin fluorescence polarisation substrate; read after 2 hr; read-out: IC50 range
Protocol: The USP7 construct was PCR amplified and cloned into a pFLAG-CMV-6a vector (Sigma-Aldrich) with an N-terminal FLAG tag. HEK293T cells were transfected with FLAG-USP7 using TransIT-LT1 transfection reagent (Mirus) according to the manufacturer's instructions. Cells were harvested 40 hours after transfection. […] The resin was washed two times with low salt buffer plus protease inhibitors (complete mini, Roche) and phosphatase inhibitors (PhosSTOP mini, Roche) and one time with high salt buffer (20 mM Tris, pH 7.5, 500 mM NaCl, 0.5 mM EDTA, 5 mM beta-mercaptoethanol, protease inhibitors (complete mini, Roche) and phosphatase inhibitors (PhosSTOP mini, Roche). To elute the bound USP7, elution buffer (10 mM Tris, pH 7.5, 150 mM NaCl, 0.5 mM EDTA, 10% glycerol, 0.5% NP40, 5 mM beta-mercaptoethanol, 0.15 mg/ml 3×FLAG peptide (Sigma-Aldrich)) was added to the resin and incubated at 4° C. for 2.5 hours rotating. The resin was centrifuged at 4000 rpm for 30 seconds, and the supernatant containing purified FLAG-USP7 was removed and stored at −80° C.
USP7 Biochemical IC50 Assay
A typical 8-point dilution series would be 100, 30, 10, 3, 1, 0.3, 0.1, 0.03 μM final. […] Either 1 μl of 50% DMSO or diluted compound was added to the plate. USP7 was diluted in reaction buffer (20 mM Tris, pH 7.5, 100 mM NaCl, 0.05% Tween 20, 0.5 mg/ml BSA, 5 mM—beta mercaptoethanol) to the equivalent of 0.0025 μl/well and 10 μl of diluted USP7 was added to the compound. Enzyme and compound were incubated for 30 min at room temp. Reactions were initiated by the addition of 50 nM of TAMRA labelled peptide linked to ubiquitin via an iso-peptide bond as fluorescence polarisation substrate. Reactions were read immediately after addition of substrate and following a 2 hr incubation at room temperature. Readings were performed on a Pherastar Plus (BMG Labtech). λ Excitation 540 nm; λ Emission 590 nm.

USP7, sequence (Q93009 whole entry): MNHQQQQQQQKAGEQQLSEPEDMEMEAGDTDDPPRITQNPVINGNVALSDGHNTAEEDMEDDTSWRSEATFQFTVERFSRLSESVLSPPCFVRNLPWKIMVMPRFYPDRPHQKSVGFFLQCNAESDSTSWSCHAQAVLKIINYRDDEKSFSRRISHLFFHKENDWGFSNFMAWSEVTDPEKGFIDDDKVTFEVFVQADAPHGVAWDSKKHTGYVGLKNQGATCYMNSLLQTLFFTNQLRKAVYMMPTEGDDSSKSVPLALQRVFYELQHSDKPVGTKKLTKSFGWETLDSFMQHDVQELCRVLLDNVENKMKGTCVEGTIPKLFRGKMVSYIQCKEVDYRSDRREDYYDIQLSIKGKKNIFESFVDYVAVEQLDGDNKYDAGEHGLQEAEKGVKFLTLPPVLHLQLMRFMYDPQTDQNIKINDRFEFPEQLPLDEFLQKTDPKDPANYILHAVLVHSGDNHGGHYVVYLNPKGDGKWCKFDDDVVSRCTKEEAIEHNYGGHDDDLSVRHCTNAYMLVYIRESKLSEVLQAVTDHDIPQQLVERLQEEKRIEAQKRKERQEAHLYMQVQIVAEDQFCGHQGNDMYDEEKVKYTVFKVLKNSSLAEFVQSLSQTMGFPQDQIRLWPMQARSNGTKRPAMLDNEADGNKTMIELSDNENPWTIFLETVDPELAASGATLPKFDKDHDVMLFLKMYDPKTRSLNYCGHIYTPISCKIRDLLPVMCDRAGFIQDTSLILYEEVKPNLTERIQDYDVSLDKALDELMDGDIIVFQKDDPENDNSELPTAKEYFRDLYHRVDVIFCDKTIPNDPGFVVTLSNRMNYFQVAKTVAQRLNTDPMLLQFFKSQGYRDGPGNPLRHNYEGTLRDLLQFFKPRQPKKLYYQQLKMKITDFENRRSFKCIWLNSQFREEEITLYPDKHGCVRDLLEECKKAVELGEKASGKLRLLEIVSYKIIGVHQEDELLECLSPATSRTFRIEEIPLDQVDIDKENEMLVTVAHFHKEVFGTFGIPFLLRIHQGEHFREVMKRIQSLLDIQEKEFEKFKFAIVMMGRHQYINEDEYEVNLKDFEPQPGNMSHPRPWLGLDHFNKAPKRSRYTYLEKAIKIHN

Question: `Cc1cc(-c2n[nH]c3c2CN(C#N)C3)ccc1N1CCN(C)CC1` [Example 74, 3-(3-Methyl-4-(4-methylpiperazin-1-yl)phenyl)-4,6-dihydro-pyrrolo[3,4-c]pyrazole-5(1H)-carbonitrile] was tested. Which IC50 did it give?
Answer: < 10 µM

Question: `N#CN1Cc2cnn(-c3ccc(C(N)=O)cc3)c2C1` [Example 5, 4-(5-Cyano-5,6-dihydropyrrolo[3,4-c]pyrazol-1(4H)-yl)benzamide] was tested. Which IC50 did it give?
Answer: 10 to 30 µM

Question: With `N#CN1Cc2[nH]nc(-c3ccc(C(F)(F)F)cc3F)c2C1` [Example 43, 3-(2-Fluoro-4-(trifluoromethyl)phenyl)-4,6-dihydropyrrolo[3,4-c]pyrazole-5(1H)-carbonitrile] as the molecule, how does the IC50 read?
Answer: < 10 µM

Question: Which IC50 does the source give for `Cc1ccc2[nH]ncc2c1-c1n[nH]c2c1CN(C#N)C2` [Example 54, 3-(5-Methyl-1H-indazol-4-yl)-4,6-dihydropyrrolo[3,4-c]pyrazole-5(1H)-carbonitrile] here?
Answer: < 10 µM

Question: How did the IC50 turn out when `Cc1nn(-c2ccc(C(N)=O)cc2)c2c1CN(C#N)C2` [Example 16, 4-(5-Cyano-3-methyl-5,6-dihydropyrrolo[3,4-c]pyrazol-1(4H)-yl)benzamide] was run?
Answer: < 10 µM

Question: How did the IC50 turn out when `N#CN1Cc2cnn(-c3cccc(C(=O)NCc4ccccc4)c3)c2C1` [Example 11, N-Benzyl-3-(5-cyano-5,6-dihydropyrrolo[3,4-c]pyrazol-1(4H)-yl)benzamide] was run?
Answer: 10 to 30 µM
